Activity calls are given as the source filed them. The calls are words filed in the database; no cut-off is given here. Bridge positions count the residues as written; N and C are the ends. Square brackets hold non-standard residues; d marks the D form. Peptide text beside a SMILES is read from it. NMeF = CN[C@@H](Cc1ccccc1)C(=O)O; dOrn = NCCC[C@@H](N)C(=O)O; dDab = NCC[C@@H](N)C(=O)O
Columns and labels:
[1] = molecular target: Kappa-type opioid receptor (Homo sapiens, UniProt P41145); format: functional, cell-based, HEK293-A
[2] = molecular target: T1, Delta-type opioid receptor (Homo sapiens, UniProt P41143); experiment: (§1) Agonist activity at DOR (unknown origin) expressed in HEK293-A cells assessed as inhibition of forskolin-induced cAMP accumulation preincubated for 30 mins in presence of 3-isobutyl-1-methylxanthine followed by forskolin and compound addition by competitive PKA binding assay; format: functional, cell-based
[3] = molecular target: T1, Delta-type opioid receptor; experiment: (§2) Agonist activity at DOR (unknown origin) expressed in HEK293-A cells assessed as inhibition of forskolin-induced cAMP accumulation preincubated for 30 mins in presence of 3-isobutyl-1-methylxanthine followed by forskolin and compound addition by competitive PKA binding assay relative to control; format: functional, cell-based
[4] = molecular target: T2, Neuropeptide FF receptor 1 (Homo sapiens, UniProt Q9GZQ6); experiment: Agonist activity at NPFF1R (unknown origin) expressed in HEK293-A cells assessed as inhibition of forskolin-induced cAMP accumulation preincubated for 30 mins in presence of 3-isobutyl-1-methylxanthine followed by forskolin and compound addition by competitive PKA binding assay; format: functional, cell-based
[5] = molecular target: T2, Neuropeptide FF receptor 1; experiment: as §2, with “NPFF1R” for “DOR”, “accumulation by measuring maximal efficacy” for “accumulation”; format: functional, cell-based; conditions: filed as agonist
[6] = molecular target: T3, Neuropeptide FF receptor 2 (Homo sapiens, UniProt Q9Y5X5); experiment: Agonist activity at NPFF2R (unknown origin) expressed in HEK293-A cells assessed as inhibition of forskolin-induced cAMP accumulation preincubated for 30 mins in presence of 3-isobutyl-1-methylxanthine followed by forskolin and compound addition by competitive PKA binding assay; format: functional, cell-based
[7] = molecular target: T3, Neuropeptide FF receptor 2; experiment: as §2, with “NPFF2R” for “DOR”, “accumulation by measuring maximal efficacy” for “accumulation”; format: functional, cell-based; conditions: filed as agonist
[8] = Metabolic stability in mouse plasma assessed as degradation half life at 0.01 M measured up to 360 mins; format: ADME, cell-free
[9] = test system: Mus musculus; experiment: Antinociceptive activity against Kunming mouse model of thermal-induced nociception assessed as peripheral analgesia administered subcutaneously by tail-flick test; format: functional; conditions: sc
[10] = test system: Mus musculus; experiment: Antinociceptive activity against Kunming mouse model of thermal-induced nociception assessed as duration of analgesic effect administered subcutaneously by tail-flick test; format: functional
[11] = test system: Mus musculus; experiment: Potency index, ratio of test compound ED50 to DN-9 ED50 for antinociceptive activity against Kunming mouse model of thermal-induced nociception assessed as peripheral analgesia administered subcutaneously by tail-flick test; format: functional
[12] = test system: Mus musculus; experiment: Antinociceptive activity in Kunming mouse assessed as analgesic tolerance administered subcutaneously once daily for 8 days by tail flick test; format: functional, organism-based; conditions: time 8.0 day
[13] = test system: Mus musculus; experiment: Antinociceptive activity against Kunming mouse model of thermal-induced nociception assessed as maximum possible effect at 87.9 nmol/kg, po measured after 20 min by tail flick test relative to control; format: functional
[14] = test system: Mus musculus; experiment: Antinociceptive activity against Kunming mouse model of thermal-induced nociception assessed as maximum possible effect at 87.9 nmol/kg, po measured after 30 min by tail flick test relative to control; format: functional; conditions: 0.5 h
[15] = test system: Mus musculus; experiment: Antinociceptive activity against Kunming mouse model of thermal-induced nociception assessed as maximum possible effect at 87.9 nmol/kg, po measured after 60 min by tail flick test relative to control; format: functional; conditions: 1 h
[16] = molecular target: Mu-type opioid receptor (Homo sapiens, UniProt P35372)
[17] = test system: Mus musculus; experiment: Antinociceptive activity against Kunming mouse model of thermal-induced nociception assessed as maximum possible effect at 86.8 nmol/kg, po measured after 20 min by tail flick test relative to control; format: functional
[18] = test system: Mus musculus; experiment: Antinociceptive activity against Kunming mouse model of thermal-induced nociception assessed as maximum possible effect at 86.8 nmol/kg, po measured after 30 min by tail flick test relative to control; format: functional; conditions: 0.5 h
[19] = test system: Mus musculus; experiment: Antinociceptive activity against Kunming mouse model of thermal-induced nociception assessed as maximum possible effect at 86.8 nmol/kg, po measured after 60 min by tail flick test relative to control; format: functional; conditions: 1 h
[20] = molecular target: T1, Delta-type opioid receptor; experiment: as §1, with “Potency index, ratio of DN-9 EC50 to test compound EC50 for agonist” for “Agonist”; format: functional, cell-based
[21] = test system: Mus musculus; experiment: Antinociceptive activity against Kunming mouse model of thermal-induced nociception assessed as maximum possible effect at 37915 nmol/kg, po measured after 20 min by tail flick test relative to control; format: functional
[22] = test system: Mus musculus; experiment: Antinociceptive activity against Kunming mouse model of thermal-induced nociception assessed as maximum possible effect at 37915 nmol/kg, po measured after 30 min by tail flick test relative to control; format: functional; conditions: 0.5 h
[23] = test system: Mus musculus; experiment: Antinociceptive activity against Kunming mouse model of thermal-induced nociception assessed as maximum possible effect at 37915 nmol/kg, po measured after 60 min by tail flick test relative to control; format: functional; conditions: 1 h
[24] = test system: Mus musculus; experiment: Antinociceptive activity against Kunming mouse model of thermal-induced nociception assessed as prolongation of tail-flick latency period at 38 umol/kg, po measured up to 240 mins by tail-flick test; format: functional, organism-based; conditions: dose 38.0 µmol/kg, time min <=240
[25] = test system: Mus musculus; experiment: Antinociceptive activity against Kunming mouse model of thermal-induced nociception assessed as maximum possible effect at 8681 nmol/kg, po measured after 20 min by tail flick test relative to control; format: functional
[26] = test system: Mus musculus; experiment: Antinociceptive activity against Kunming mouse model of thermal-induced nociception assessed as maximum possible effect at 8681 nmol/kg, po measured after 30 min by tail flick test relative to control; format: functional; conditions: 0.5 h
[27] = test system: Mus musculus; experiment: Antinociceptive activity against Kunming mouse model of thermal-induced nociception assessed as maximum possible effect at 8681 nmol/kg, po measured after 60 min by tail flick test relative to control; format: functional; conditions: 1 h
[28] = test system: Mus musculus; experiment: Antinociceptive activity against Kunming mouse model of thermal-induced nociception assessed as maximum possible effect at 89 nmol/kg, po measured after 20 min by tail flick test relative to control; format: functional
[29] = test system: Mus musculus; experiment: Antinociceptive activity against Kunming mouse model of thermal-induced nociception assessed as maximum possible effect at 89 nmol/kg, po measured after 30 min by tail flick test relative to control; format: functional; conditions: 0.5 h
[30] = test system: Mus musculus; experiment: Antinociceptive activity against Kunming mouse model of thermal-induced nociception assessed as maximum possible effect at 89 nmol/kg, po measured after 60 min by tail flick test relative to control; format: functional; conditions: 1 h
[31] = test system: Mus musculus; experiment: Antinociceptive activity against Kunming mouse model of thermal-induced nociception assessed as maximum possible effect at 264201 nmol/kg, po measured after 20 min by tail flick test relative to control; format: functional
[32] = test system: Mus musculus; experiment: Antinociceptive activity against Kunming mouse model of thermal-induced nociception assessed as maximum possible effect at 264201 nmol/kg, po measured after 30 min by tail flick test relative to control; format: functional; conditions: 0.5 h
[33] = test system: Mus musculus; experiment: Antinociceptive activity against Kunming mouse model of thermal-induced nociception assessed as maximum possible effect at 264201 nmol/kg, po measured after 60 min by tail flick test relative to control; format: functional; conditions: 1 h
[34] = test system: Mus musculus; experiment: Antinociceptive activity against Kunming mouse model of thermal-induced nociception assessed as prolongation of tail-flick latency period at 264 umol/kg, po measured up to 240 mins by tail-flick test; format: functional, organism-based; conditions: dose 264.0 µmol/kg, time min <=240

Sequence of Kappa-type opioid receptor (P41145 whole entry): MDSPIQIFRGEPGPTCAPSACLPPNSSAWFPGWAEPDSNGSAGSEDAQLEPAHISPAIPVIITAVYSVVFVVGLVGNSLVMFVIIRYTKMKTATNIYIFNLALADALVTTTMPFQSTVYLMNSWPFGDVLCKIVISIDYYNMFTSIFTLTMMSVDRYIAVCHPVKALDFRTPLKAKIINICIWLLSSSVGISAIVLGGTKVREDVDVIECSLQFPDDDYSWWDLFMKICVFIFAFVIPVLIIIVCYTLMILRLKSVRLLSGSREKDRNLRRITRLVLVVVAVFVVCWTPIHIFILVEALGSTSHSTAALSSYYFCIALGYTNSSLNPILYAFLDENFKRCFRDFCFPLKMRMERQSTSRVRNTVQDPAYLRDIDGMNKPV
Sequence of Mu-type opioid receptor (P35372 whole entry): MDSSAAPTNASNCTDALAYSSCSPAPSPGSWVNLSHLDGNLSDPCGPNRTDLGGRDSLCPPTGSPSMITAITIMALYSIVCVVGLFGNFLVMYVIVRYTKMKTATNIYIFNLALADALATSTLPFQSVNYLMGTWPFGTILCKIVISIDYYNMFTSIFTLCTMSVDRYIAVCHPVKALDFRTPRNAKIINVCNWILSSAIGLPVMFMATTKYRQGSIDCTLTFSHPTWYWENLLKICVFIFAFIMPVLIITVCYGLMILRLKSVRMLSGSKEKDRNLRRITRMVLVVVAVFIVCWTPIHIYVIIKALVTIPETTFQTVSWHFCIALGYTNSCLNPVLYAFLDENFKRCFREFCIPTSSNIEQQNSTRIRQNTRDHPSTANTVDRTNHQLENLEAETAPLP
T1 sequence (P41143 whole entry): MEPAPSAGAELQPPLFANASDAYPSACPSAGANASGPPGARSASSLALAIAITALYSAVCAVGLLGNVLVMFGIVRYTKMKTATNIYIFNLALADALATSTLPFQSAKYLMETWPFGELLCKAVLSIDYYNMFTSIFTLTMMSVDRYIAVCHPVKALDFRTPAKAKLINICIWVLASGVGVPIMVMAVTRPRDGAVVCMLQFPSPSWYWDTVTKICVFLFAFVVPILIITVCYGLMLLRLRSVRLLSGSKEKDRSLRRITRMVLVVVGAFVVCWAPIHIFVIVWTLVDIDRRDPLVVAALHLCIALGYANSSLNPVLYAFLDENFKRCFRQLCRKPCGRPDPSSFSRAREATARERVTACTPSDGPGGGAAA
T3 sequence (Q9Y5X5 whole entry): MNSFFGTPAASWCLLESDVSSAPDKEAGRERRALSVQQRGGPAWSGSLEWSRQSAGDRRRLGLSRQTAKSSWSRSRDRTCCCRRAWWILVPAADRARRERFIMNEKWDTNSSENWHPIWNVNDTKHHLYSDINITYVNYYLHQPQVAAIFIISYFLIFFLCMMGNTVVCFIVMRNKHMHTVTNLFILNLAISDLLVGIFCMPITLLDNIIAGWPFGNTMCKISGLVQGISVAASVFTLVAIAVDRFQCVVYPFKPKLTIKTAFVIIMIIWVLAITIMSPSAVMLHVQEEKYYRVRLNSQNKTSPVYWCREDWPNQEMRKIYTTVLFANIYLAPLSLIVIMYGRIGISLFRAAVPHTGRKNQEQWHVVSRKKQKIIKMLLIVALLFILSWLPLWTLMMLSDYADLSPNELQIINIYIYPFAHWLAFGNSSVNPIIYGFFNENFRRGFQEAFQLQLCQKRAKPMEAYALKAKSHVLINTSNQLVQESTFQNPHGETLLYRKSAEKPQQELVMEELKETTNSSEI
T2 sequence (Q9GZQ6 whole entry): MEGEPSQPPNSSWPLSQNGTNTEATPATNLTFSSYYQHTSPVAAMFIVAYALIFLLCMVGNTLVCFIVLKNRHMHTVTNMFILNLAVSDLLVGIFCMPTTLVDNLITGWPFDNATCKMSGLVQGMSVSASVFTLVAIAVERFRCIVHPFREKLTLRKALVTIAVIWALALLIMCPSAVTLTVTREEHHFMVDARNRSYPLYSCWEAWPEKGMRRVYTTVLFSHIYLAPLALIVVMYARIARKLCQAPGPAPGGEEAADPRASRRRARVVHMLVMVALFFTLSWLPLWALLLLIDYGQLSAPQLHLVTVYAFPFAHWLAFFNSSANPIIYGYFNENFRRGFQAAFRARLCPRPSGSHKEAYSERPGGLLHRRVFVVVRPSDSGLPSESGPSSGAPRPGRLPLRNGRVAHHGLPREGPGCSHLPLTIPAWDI

Row | Compound | EC50 [1] [nM] | EC50 [2] [nM] | Emax ([3]; filed as agonist) [%] | EC50 [4] [nM] | Emax [5] [%] | EC50 ([6]; read-out: EC50) [nM] | Emax [7] [%] | half-life at 10000 µM [8] [min] | ED50 [9] [µmol/kg] | Tlast [10] [min] | Ratio ED50 [11] | Activity [12] | EC50 [16] [nM] | MPE [25] [%] | MPE [26] [%] | MPE [27] [%] | other results
1 | CN1C(=O)CNC(=O)[C@H](NC(=O)[C@@H](N)Cc2ccc(O)cc2)CCCNC(=O)C[C@@H](C(=O)N2CCC[C@H]2C(=O)N[C@@H](CCC(N)=O)C(=O)N[C@@H](CCCNC(=N)N)C(=O)N[C@@H](Cc2ccccc2)C(N)=O)NC(=O)[C@@H]1Cc1ccccc1 (H-Y[dOrn]G[NMeF]DPQRF-NH2; lactam 2-5) | 139 | 659 | 51.9 | 439 | 72.4 | 133 | 52.8 | 41.1 | 0.0132 | 240 | 16.4 | inactive | 168 |  |  |  | MPE [13]: 80.8%; MPE [14]: 96%; MPE [15]: 70.7%
2 | CN1C(=O)CNC(=O)[C@H](NC(=O)[C@@H](N)Cc2ccc(O)cc2)CC(=O)NCCCC[C@@H](C(=O)N2CCC[C@H]2C(=O)N[C@@H](CCC(N)=O)C(=O)N[C@@H](CCCNC(=N)N)C(=O)N[C@@H](Cc2ccccc2)C(N)=O)NC(=O)[C@@H]1Cc1ccccc1 (H-Y[dD]G[NMeF]KPQRF-NH2; lactam 2-5) | 81.3 | 74.2 | 56 | 222 | 77.6 | 303 | 71.8 | 10.8 | 0.0137 | 240 | 15.7 | inactive | 66.3 |  |  |  | EC50 ([6]; read-out: pEC50 (converted)): 309 nM; MPE [17]: 88.7%; MPE [18]: 95.6%; MPE [19]: 80.5%; Ratio EC50 [20]: 7
3 | C[C@@H](NC(=O)[C@@H](N)Cc1ccc(O)cc1)C(=O)NCC(=O)N(C)[C@@H](Cc1ccccc1)C(=O)NCC(=O)N1CCC[C@H]1C(=O)N[C@@H](CCC(N)=O)C(=O)N[C@@H](CCCNC(=N)N)C(=O)N[C@@H](Cc1ccccc1)C(N)=O (H-Y[dA]G[NMeF]GPQRF-NH2) |  |  |  |  |  |  |  | 21.8 | 0.216 | 90 | 1 | inactive |  |  |  |  | MPE [21]: 75.6%; MPE [22]: 63.1%; MPE [23]: 22.8%; Activity [24]: Active
4 | CN1C(=O)CNC(=O)[C@@H](NC(=O)[C@@H](N)Cc2ccc(O)cc2)CCCCNC(=O)C[C@H](C(=O)N2CCC[C@H]2C(=O)N[C@@H](CCC(N)=O)C(=O)N[C@@H](CCCNC(=N)N)C(=O)N[C@@H](Cc2ccccc2)C(N)=O)NC(=O)[C@@H]1Cc1ccccc1 (H-YKG[NMeF][dD]PQRF-NH2; lactam 2-5) |  | 923 | 62.2 | 104 | 76.2 | 81.5 | 62.4 | 6.7 | 0.0263 | 240 |  | inactive | 167 | 94.1 | 82.5 | 70.6 | 
5 | CN1C(=O)CNC(=O)[C@H](NC(=O)[C@@H](N)Cc2ccc(O)cc2)CCNC(=O)C[C@@H](C(=O)N2CCC[C@H]2C(=O)N[C@@H](CCC(N)=O)C(=O)N[C@@H](CCCNC(=N)N)C(=O)N[C@@H](Cc2ccccc2)C(N)=O)NC(=O)[C@@H]1Cc1ccccc1 (H-Y[dDab]G[NMeF]DPQRF-NH2; lactam 2-5) | 71.2 | 95.1 |  | 180 | 73.4 | 265 | 63.2 | 530 | 0.0142 | 240 | 15.2 | inactive | 37.9 |  |  |  | Emax [3]: 31.2%; MPE [28]: 80.8%; MPE [29]: 93.8%; MPE [30]: 74%
6 | CN1C(=O)CNC(=O)[C@@H](NC(=O)[C@@H](N)Cc2ccc(O)cc2)CCCCNC(=O)C[C@@H](C(=O)N2CCC[C@H]2C(=O)N[C@@H](CCC(N)=O)C(=O)N[C@@H](CCCNC(=N)N)C(=O)N[C@@H](Cc2ccccc2)C(N)=O)NC(=O)[C@@H]1Cc1ccccc1 (H-YKG[NMeF]DPQRF-NH2; lactam 2-5) | 320 | 28.2 | 65.7 | 28.9 | 80.6 | 112 | 68.1 | 9.9 | 0.022 | 240 |  | inactive | 72.6 | 93.9 | 93.2 | 76.3 | 
7 | CN1C(=O)CNC(=O)[C@H](NC(=O)[C@@H](N)Cc2ccc(O)cc2)CCCCNC(=O)C[C@H](C(=O)N2CCC[C@H]2C(=O)N[C@@H](CCC(N)=O)C(=O)N[C@@H](CCCNC(=N)N)C(=O)N[C@@H](Cc2ccccc2)C(N)=O)NC(=O)[C@@H]1Cc1ccccc1 (H-Y[dK]G[NMeF][dD]PQRF-NH2; lactam 2-5) |  | 581 | 60.3 | 528 | 75.6 | 190 | 59 | 18.7 | 0.0201 | 240 |  | inactive | 586 | 92.6 | 94.1 | 74.1 | 
8 | CN1CC[C@]23c4c5ccc(O)c4O[C@H]2[C@@H](O)C=C[C@H]3[C@H]1C5 [MORPHINE] |  |  |  |  |  |  |  |  |  |  |  |  |  |  |  |  | MPE [31]: 75.3%; MPE [32]: 87.6%; MPE [33]: 63%; Activity [34]: Active

— ChEMBL document CHEMBL5034023, “Development of Multifunctional and Orally Active Cyclic Peptide Agonists of Opioid/Neuropeptide FF Receptors that Produce Potent, Long-Lasting, and Peripherally Restricted Antinociception with Diminished Side Effects” (J Med Chem, 2021)
